Assay results as given in US20240415800A1, “DOPA AND CAFFEIC ACID ANALOGS AS NOVEL GCPII INHIBITORS” (The Johns Hopkins University, priority 2021, published 2024).
“And” between values parts separate entries of the source, which are not always exact repeats. Identical values can stand only once. “Also recorded” adds a separate entry of the source. Like-named read-outs stand apart in the source and are kept apart here. Blank lines part the entries; values can stand above or below the molecule they belong to.

Legend:
[1] = molecular target: T1, Recombinant human GCPII enzyme (Homo sapiens (Human), UniProt Q04609); test: GCPII activity assay (IC50, radiolabelled NAAG hydrolysis); format: biochemical; conditions: for GCPII inhibitory potency (in words): SAR of L-DOPA analogs
[2] = Solubility of D-DOPA in intranasal dosing vehicle; format: physicochemical
[3] = molecular target: GCPII activity in the brain (Mus musculus (Mouse), UniProt O35409); test: GCPII target engagement: GCPII activity in brain after dosing; format: in vivo, CD1 mouse
[4] = Mouse two-point oral pharmacokinetic screening; set-up: species or system CD-1 mice; conditions: in vivo, 50 mg/kg
Description: Male CD-1 mice between 25-30 g were obtained from Harlan and maintained on a 12 h light-dark cycle with ad libitum access to food and water. […] All of the formulations were freshly prepared prior to the dosing. […] For the collection of plasma and brain tissue, animals were euthanized with CO2, and blood samples were collected in heparinized microtubes by cardiac puncture. Brains were dissected and immediately flash frozen (-80° C.). […] Van […] et al., 2020; Wang et al., 2015. While D-/L-DOPA required derivatization with acetic anhydride, caffeic acid was analyzed using a single step protein precipitation method. […] Plasma and brain tissue samples were processed by matching the dilutions of calibration standards of the respective tissue. […] The solutions were vortexed for 15 secs and then allowed to sit at room temperature for 45 mins. These mixtures were vortexed again for 10 sec and centrifuged at 10,000 g for 10 mins to collect the supernatant. A 50 μL aliquot of the supernatant was transferred to 250 μL polypropylene autosampler vials sealed with Teflon caps. 2 μL of the sample was injected into the LC/MS/MS system for analysis. […] Then, 2 μL of the sample was analyzed using LC/MS/MS system as mentioned above. Plasma concentrations (nmol/mL) and brain tissue concentrations (nmol/g) were determined and plots of mean plasma or brain concentrations versus time were constructed.

[5] = molecular target: T1, Recombinant human GCPII enzyme; test: biochemical
[6] = molecular target: T1, Recombinant human GCPII enzyme; conditions: NAAG saturation, D-DOPA 0-400 nM
[7] = Pharmacokinetics of D-DOPA in mouse plasma and brain (IV, PO, IN; Example 1); format: in vivo, CD1 mice; conditions: for Kp: brain/plasma, read-out: AUCBrain/Plasma (brain penetration index)
[8] = In vitro metabolic stability in mouse plasma and brain homogenate; format: in vitro ADME; conditions: 10 μM, 1 h
Description: Zimmermann et al., 2018. For the brain homogenates, washed tissues were diluted 10-fold in 0.1 M potassium phosphate buffer and homogenized using a probe sonicator. Crude homogenate and plasma were aliquoted to 1 mL and spiked with a final assay concentration of 10 μM of the respective catechol followed by incubation in an orbital shaker at 37° C. for 1 h (in triplicate). An aliquot from each incubated homogenate was quenched with three volumes of acetonitrile containing the internal standard (IS; losartan: […]) at predetermined time points (0, 30, 60 min). Samples were vortex-mixed for 30 secs and centrifuged at 10,000×g for 10 min at 4° C.
Disappearance of respective catechol was monitored on a Dionex Ultimate 3000 ultra-high-performance LC system coupled with Q Exactive Focus orbitrap mass spectrometer (Thermo Fisher Scientific Inc., Waltham MA). The separation of analytes was achieved using the Agilent Eclipse Plus column (100×2.1 mm i.d.; maintained at 35° C.) packed with a 1.8 μm C18 stationary phase. The mobile phase consisted of 0.1% formic acid in water and 0.1% formic acid in acetonitrile. Pumps were operated at a flow rate of 0.4 mL/min for 9 min using gradient elution. […] Quantification of the compounds was performed in the full-scan mode (from m/z 50 to 1600) by comparing t=0 samples with t=30- and 60-min samples.

[9] = Time-dependent PK of D-DOPA with or without sodium benzoate (Example 2); format: in vivo, CD-1 mice
Description: All of the formulations were freshly prepared prior to the dosing. […] Tissue and plasma collection were carried out as described above. […] Van […] et al., 2020; Wang et al., 2015. While D-/L-DOPA required derivatization with acetic anhydride, caffeic acid was analyzed using a single step protein precipitation method. […] Plasma and brain tissue samples were processed by matching the dilutions of calibration standards of the respective tissue. […] The solutions were vortexed for 15 secs and then allowed to sit at room temperature for 45 mins. These mixtures were vortexed again for 10 sec and centrifuged at 10,000 g for 10 mins to collect the supernatant. A 50 μL aliquot of the supernatant was transferred to 250 μL polypropylene autosampler vials sealed with Teflon caps. 2 μL of the sample was injected into the LC/MS/MS system for analysis. Chromatographic analysis was performed using Thermo Scientific Vanquish UPLC system consisting of an analytical pump and an autosampler coupled with a […] spectrometer. For all analytes, the mobile phase used for the chromatographic separation composed of 0.1% formic acid in acetonitrile and 0.1% formic acid in water delivered as a gradient while pumping a flow rate of 0.400 mL/min. […] The analyte was monitored using ThermoScientific […] triple-quadrupole mass-spectrometric detector equipped with an electrospray interface, and operated in negative ion mode. The instrument was controlled by Thermo Scientific Xcalibur (version 4.2.47) software. […] Plasma concentrations (nmol/mL) and brain tissue concentrations (nmol/g) were determined and plots of mean plasma or brain concentrations versus time were constructed.

[10] = Table 1, catechol scaffolds for GCPII inhibition
[11] = Table 2-1, human recombinant GCPII
[12] = PO 50 mg/kg + sodium benzoate 400 mg/kg IP, brain

GCPII activity in the brain, sequence (O35409 whole entry): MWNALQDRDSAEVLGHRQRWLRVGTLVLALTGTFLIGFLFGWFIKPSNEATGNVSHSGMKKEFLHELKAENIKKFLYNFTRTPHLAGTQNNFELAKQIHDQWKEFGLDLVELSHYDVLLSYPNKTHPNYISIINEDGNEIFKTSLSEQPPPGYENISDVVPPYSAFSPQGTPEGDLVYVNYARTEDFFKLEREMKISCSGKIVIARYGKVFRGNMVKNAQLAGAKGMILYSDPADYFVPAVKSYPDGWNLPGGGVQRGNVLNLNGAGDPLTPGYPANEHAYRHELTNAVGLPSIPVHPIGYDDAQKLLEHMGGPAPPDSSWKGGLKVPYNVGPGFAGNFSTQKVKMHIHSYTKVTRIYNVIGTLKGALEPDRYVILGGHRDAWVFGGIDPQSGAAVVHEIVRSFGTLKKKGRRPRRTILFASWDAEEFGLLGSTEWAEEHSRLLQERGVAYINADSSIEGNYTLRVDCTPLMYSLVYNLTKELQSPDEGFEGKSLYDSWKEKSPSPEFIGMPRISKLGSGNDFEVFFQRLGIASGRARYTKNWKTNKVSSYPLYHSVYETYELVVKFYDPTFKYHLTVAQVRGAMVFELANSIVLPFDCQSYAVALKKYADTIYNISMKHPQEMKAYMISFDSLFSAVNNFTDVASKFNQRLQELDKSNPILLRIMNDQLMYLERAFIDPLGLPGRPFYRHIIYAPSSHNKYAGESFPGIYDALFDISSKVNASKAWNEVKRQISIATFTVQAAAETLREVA
T1 sequence (Q04609 whole entry): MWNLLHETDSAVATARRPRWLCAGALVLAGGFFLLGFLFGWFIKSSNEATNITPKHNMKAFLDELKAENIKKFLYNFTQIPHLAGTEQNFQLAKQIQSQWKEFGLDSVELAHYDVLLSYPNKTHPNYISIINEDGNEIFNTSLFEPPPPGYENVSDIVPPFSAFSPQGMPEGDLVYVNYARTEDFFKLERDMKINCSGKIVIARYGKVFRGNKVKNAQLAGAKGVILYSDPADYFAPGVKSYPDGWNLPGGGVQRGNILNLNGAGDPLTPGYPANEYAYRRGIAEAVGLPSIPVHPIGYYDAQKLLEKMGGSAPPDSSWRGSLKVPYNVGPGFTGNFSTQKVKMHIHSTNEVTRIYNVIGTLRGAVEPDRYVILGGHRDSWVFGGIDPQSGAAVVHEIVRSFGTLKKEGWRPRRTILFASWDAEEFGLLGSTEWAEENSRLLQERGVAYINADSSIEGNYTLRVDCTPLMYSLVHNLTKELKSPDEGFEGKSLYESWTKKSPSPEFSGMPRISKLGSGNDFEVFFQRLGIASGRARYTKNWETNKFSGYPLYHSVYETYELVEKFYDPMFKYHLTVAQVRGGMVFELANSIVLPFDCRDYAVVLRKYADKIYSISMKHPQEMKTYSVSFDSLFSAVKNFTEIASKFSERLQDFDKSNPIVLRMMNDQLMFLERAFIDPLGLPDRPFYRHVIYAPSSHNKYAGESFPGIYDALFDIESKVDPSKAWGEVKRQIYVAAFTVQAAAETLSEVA

Structure (SMILES): O=C(O)/C=C/c1ccc(O)c(O)c1 [Caffeic acid]
- IC50 ([1]; GCPII): 300 nM
- GCPII inhibitory potency (in words) [1]: sub-micromolar potencies
- IC50 [1, 10]: 100 nM

Structure (SMILES): N[C@@H](Cc1ccc(O)cc1)C(=O)O [Compound 2-2, Tyr]
- GCPII inhibitory potency (in words) [1]: substantial loss of potency
- IC50 [1, 11]: 100000 nM

Structure (SMILES): N[C@H](Cc1ccc(O)c(O)c1)C(=O)O [D-DOPA, D-3,4-dihydroxyphenylalanine]
- solubility in vehicle [2]: poor solubility
- IC50 ([1]; GCPII): 200 nM
- GCPII inhibitory potency (in words) [1]: sub-micromolar potencies
- GCPII activity in brain (cortex) ([3]; PO 30 mg/kg, 1 h post dose): significant inhibition of GCPII activity
- GCPII activity in brain ([3]; PO 50 mg/kg + sodium benzoate 400 mg/kg IP, 30 min): significantly outperformed D-DOPA alone; also recorded: significant inhibition of GCPII activity; also recorded: significantly outperformed D-DOPA mono-therapy
- GCPII activity in brain ([3]; PO 50 mg/kg monotherapy, 30 min, vs untreated): significant inhibition of GCPII activity
- GCPII activity in brain ([3]; intranasal dosing): insufficient exposures to the brain to affect GCP II activity
- plasma and brain exposure (in words) [4]: higher plasma and brain exposure
- Ki [5]: ~400 nM
- mode of inhibition [6]: noncompetitive, allosteric inhibitor of GCPII
- Kp ([7]; CD1, mouse, other: intranasal, 3.4 mg/kg, IN 3.4 mg/kg): 0.051
- Kp ([7]; CD1, mouse, po, 30 mg/kg, PO 30 mg/kg): < 0.05
- Cmax ([7]; CD1, mouse, inhaled or intranasal, IN 3.4 mg/kg, plasma, read-out: Cmax): 4.45 ± 0.971 µM
- AUC0-t ([7]; CD1, mouse, plasma, inhaled or intranasal, 3.4 mg/kg, IN 3.4 mg/kg, plasma, read-out: AUC0-t): 2.7 ± 0.508 µM·h
- AUC0-t ([7]; CD1, mouse, plasma, iv, 10 mg/kg, IV 10 mg/kg, plasma, read-out: AUC0-t): 30.5 ± 2.04 µM·h
- Tmax ([7]; CD1, mouse, plasma, iv, 10 mg/kg, IV 10 mg/kg, plasma, read-out: Tmax): ≤ 0.0833 h
- Tmax ([7]; CD1, mouse, plasma, iv, 10 mg/kg, IV 10 mg/kg, plasma, read-out: Tmax (h)): 0.0833 h
- bioavailability ([7]; CD1, mouse, plasma, PO 30 mg/kg vs IV 10 mg/kg, read-out: Bioavailability (% F)): 36%
- Cmax ([7]; CD1, mouse, PO 30 mg/kg, plasma, read-out: Cmax): 43.1 ± 2.58 µM
- AUC0-t ([7]; IN 3.4 mg/kg, brain): 0.139 ± 0.0268 nmol·h/g
- Cmax ([7]; IN 3.4 mg/kg, brain): 0.102 ± 0.00823 nmol/g
- Tmax ([7]; IN 3.4 mg/kg, plasma): 0.250 h
- AUC0-t ([7]; PO 30 mg/kg, brain): 1.09 ± 0.103 nmol·h/g
- Cmax ([7]; PO 30 mg/kg, brain): 0.472 ± 0.124 nmol/g
- AUC0-t ([7]; PO 30 mg/kg, plasma): 32.92 ± 0.731 µM·h
- Cmax ([7]; mouse, IV 10 mg/kg, plasma, CD1 mice, read-out: Cmax): 61.1 ± 5.09 µM
- metabolic stability (in words) [8]: good metabolic stability; also recorded: superior in vitro stability
- Kp ([9]; CD-1, mouse, brain/plasma, PO 50 mg/kg + sodium benzoate 400 mg/kg IP, read-out: brain penetration index): 0.03
- AUC ([9]; CD-1, mouse, plasma, iv, 10 mg/kg, IV 10 mg/kg, plasma, read-out: AUCIV): 30.5 µM·h
- AUC ([9]; CD-1, mouse, plasma, oral, PO 50 mg/kg + sodium benzoate 400 mg/kg IP, plasma, read-out: AUCPlasma): 185 µM·h
- AUC ([9]; CD-1, mouse, plasma, po, 50 mg/kg, PO 50 mg/kg + sodium benzoate 400 mg/kg IP, plasma, read-out: AUCPlasma): 185 µM·h
- AUC ([9]; CD-1, mouse, plasma, po, 50 mg/kg, PO 50 mg/kg monotherapy, plasma, read-out: AUCPO-plasma): 72.7 µM·h
- Cmax ([9]; CD-1, mouse, PO 50 mg/kg monotherapy, brain, read-out: Cmax): 1.74 µM
- time brain levels stayed >IC50 value of 0.2 μM ([9]; PO 50 mg/kg + sodium benzoate 400 mg/kg IP): over 3 h
- AUCBrain [9, 12]: 5.48 nmol·h/g
- Cmax [9, 12]: 3.2 nmol/g and 3.20 nmol/g
- Cmax ([9]; PO 50 mg/kg + sodium benzoate 400 mg/kg IP, plasma, read-out: Cmax): 151 µM
- time brain concentrations were >IC50 ([9]; PO 50 mg/kg monotherapy): up to 1 h
- AUCPO-Brain ([9]; PO 50 mg/kg monotherapy, brain): 2.42 nmol·h/g
- Cmax ([9]; PO 50 mg/kg monotherapy, brain): 1.74 nmol/g
- Tmax ([9]; PO 50 mg/kg monotherapy, brain): 30 min
- oral bioavailability (AUCPO/IV) ([9]; PO 50 mg/kg vs IV 10 mg/kg): 47.7%
- enhancement in both plasma and brain exposures ([9]; combination with sodium benzoate vs D-DOPA alone): > 200%

Structure (SMILES): N[C@@H](Cc1ccc(O)c(O)c1)C(=O)O [L-DOPA]
- GCPII inhibitory potency (in words) [1]: sub-micromolar potencies; also recorded: submicromolar inhibitor of GCPII
- IC50 [1, 10]: 400 nM
- IC50 [1, 11]: 600 nM

Now from value to molecule:

- GCPII inhibitory potency (in words) [1]: substantial loss of potency
- IC50 [1, 11]: > 100000 nM
Structure (SMILES): COc1ccc(C[C@H](N)C(=O)O)cc1OC [Compound 2-3]

- GCPII inhibitory potency (in words) [1]: complete loss of potency
- IC50 [1, 11]: > 100000 nM
Structure (SMILES): NC(Cc1ccc(=O)n(O)c1)C(=O)O (stereo not drawn) [Compound 2-4]

- GCPII inhibitory potency (in words) [1]: loss of potency
- IC50 [1, 11]: > 100000 nM
Structure (SMILES): C[C@](N)(Cc1ccc(O)c(O)c1)C(=O)O [Compound 2-5]

- GCPII inhibitory potency (in words) [1]: loss of potency
- IC50 [1, 11]: 20000 nM
Structure (SMILES): CC(=O)N[C@@H](Cc1ccc(O)c(O)c1)C(=O)O [Compound 2-6]

- GCPII inhibitory potency (in words) [1]: loss of potency
- IC50 [1, 11]: > 100000 nM
Structure (SMILES): NCCc1ccc(O)c(O)c1 [Compound 2-7, Dopamine]

- IC50 [1, 11]: 4000 nM
- decrease in inhibitory potency ([1]; relative to L-DOPA): 6.7 fold
Structure (SMILES): O=C(O)CCc1ccc(O)c(O)c1 [Compound 2-8]
